Source: patent US11685741B2, “Fluorescent probes” (University of Massachusetts, priority 2017, dated 2023)

How the values were obtained:
[1] = Effect of pH on fluorescence of sensor and its Fe complex; type: physicochemical; conditions: pH adjusted with HCl/NaOH
[2] = Binding studies of sensor with Fe2+ (stoichiometry, affinity, reversibility); conditions: for binding constant: 1:1 sensor-Fe^2+ complex, H2O/THF pH 7.3 v/v 1:1
Experimental: The binding stoichiometry between the sensor Rh6GD and Fe^2+ was investigated by absorption and fluorescence titrations first. The sensor, Rh6GD has an absorption band at ˜420 nm (FIG. 26) which is due to the transition from S0 to S1 states (A. Chakraborty, et al., N. Chem. Phys., 2006, 324, 733) of the dimethylaminocinnamaldehyde moiety. […] Similar titrations were performed and were monitored by fluorescence spectroscopy.
The binding constant was estimated by using the absorption titration results. The equations below were used to calculate the binding constant for 2:1 complexes following a reported procedure (M. Guo, et al., Dalton Trans., 2007, 102, 4951). S+2L ? SL2 (1) The complex apparent binding constant is given by
[formula] Fc is the fraction of L that formed a complex; the subscripts e and o stand for equilibrium and initial concentrations, respectively. Au, Am, and Ac are the absorbances of solutions of L (before any Fe^2+ was added), during the titration, and at saturation, respectively. The concentration of free Fe^2+ at equilibrium, [S]e, is found with the following identity: [S]e=[S]o−[SL2]e[=S]o−Fc[L]o (4) Finally, the integrated apparent binding constant equation is shown in equation (5).
Reversibility experiments were carried out by adding the metal chelator EDTA to the Rh6GD-Fe^2+ complex in H2O/THF (pH 7.3, v/v 4:1). […]
Besides metal-selectivity, the binding constant, which describes the strength of binding between the sensor and metal cations, is also an important factor to be considered in bio-imaging. […] Job's method was applied to study the binding stoichiometry between Rh101D and Fe^2+ and monitored by the absorbance at 585 nm.
The binding constants were estimated by using the fluorescence titration results (FIG. 38). […]
The binding stoichiometry and the affinity between the sensor NIRh-Fret and Fe^2+ were investigated by UV-vis absorption titration. […] The binding constant for the formation of this complex was determined to be 2.9×10^6 M^−1 using a reported procedure (C. A. Perez, et al., J. Inorg. Biochem., 2009, 103, 326). […]

[3] = system: cells in the culture experiments; test: Cell permeability and toxicity in the culture experiments; type: cell-based; conditions: for cell permeability: live cells in culture

With CCN(CC)c1ccc2c(c1)OC1=C(CCC/C1=C\C=C1\N(C)c3ccccc3C1(C)C)C21c2ccccc2C(=O)N1/N=C\C=C\c1ccc(N(C)C)cc1 (centres unmarked) [NIRh-Fret, (E)-6′-(diethylamino)-2-(((1Z,2E)-3-(4-(dimethylamino)phenyl)allylidene)amino)-4′-(2-((E)-1,3,3-trimethylindolin-2-ylidene)ethylidene)-1′,2′,3′,4′-tetrahydrospiro[isoindoline-1,9′-xanthen]-3-one] the “pH range over which sensor (and Fe complex) fluorescence is stable / working pH range” value [1] was no less than 4.5 and the binding constant [2] was 2.9e+06 M⁻¹.
With CCNc1cc2c(cc1C)C1(c3cc(C)c(NCC)cc3O2)c2ccccc2C(=O)N1/N=C/C=C/c1ccc(N(C)C)cc1 [Rh6GD, 2-(((1E,2E)-3-(4-(dimethylamino)phenyl)allylidene)amino)-3′,6′-bis(ethylamino)-2′,7′-dimethylspiro[isoindoline-1,9′-xanthen]-3-one] the “pH range over which sensor (and Fe complex) fluorescence is stable / working pH range” value [1] was 9.3 to 4.5 and the apparent binding constant ([2]; 2:1 sensor-Fe^2+ complex, absorption titration, H2O/THF pH 7.3 v/v 4:1) was 1.8×10^11 M^−2.
In the case of CN(C)c1ccc(/C=C/C=N/N2C(=O)c3ccccc3C23c2cc4c5c(c2Oc2c3cc3c6c2CCCN6CCC3)CCCN5CCC4)cc1 [Rh101D], the “pH range over which sensor (and Fe complex) fluorescence is stable / working pH range” value [1] is reported as 9.5 to 4.5, the cell permeability [3] is reported as “cell permeable” and the binding constant [2] is reported as 120000 M⁻¹.
For CCN(CC)c1ccc2c(c1)Oc1cc(N(CC)CC)ccc1C21c2ccccc2C(=O)N1CC/N=C(\C)c1cccc(C(C)=O)n1 [Rh-PK, (E)-2-(2-((1-(6-acetylpyridin-2-yl)ethylidene)amino)ethyl)-3′,6′-bis(diethylamino)spiro[isoindoline-1,9′-xanthen]-3-one], the “pH range over which sensor (and Fe complex) fluorescence is stable / working pH range” value [1] was 4 to 9, the “pH range over which sensor (and Fe complex) fluorescence is stable / working pH range” value ([1]; listed as Rh-Pk) was 4-9 and the toxicity for cells ([3]; culture experiments) was “non-toxic”. The cell permeability [3] was “excellent cell permeability”.
